Experiments:
NCI/ADR-RES = test: cells; type: cell-based; conditions: NCI/ADR-RES (Ovarian Cancer)
OVCAR-3 = test: cells; type: cell-based; conditions: OVCAR-3 (Ovarian Cancer)
MDA-MB-231/ATCC = test: cells; type: cell-based; conditions: MDA-MB-231/ATCC (Breast Cancer)
SR = test: cells; type: cell-based; conditions: SR (Leukemia)
BT-549 = test: cells; type: cell-based; conditions: BT-549 (Breast Cancer)
HCT-116 = test: cells; type: cell-based; conditions: HCT-116 (Colon Cancer)
MCF7 = test: cells; type: cell-based; conditions: MCF7 (Breast Cancer)
human PIM1 = molecular target: T1, human PIM1 (Homo sapiens, UniProt P11309); test: Inhibition of enzymatic kinase activity (LANCE Ulight); type: biochemical; conditions: at 1 μM concentration; read-out: PIM1 percentage inhibition
T1 construct: Purified full-length human SYK, ZAP70, PIM1, PYK2; purchased Carna Biosciences
T1 sequence (P11309 whole entry): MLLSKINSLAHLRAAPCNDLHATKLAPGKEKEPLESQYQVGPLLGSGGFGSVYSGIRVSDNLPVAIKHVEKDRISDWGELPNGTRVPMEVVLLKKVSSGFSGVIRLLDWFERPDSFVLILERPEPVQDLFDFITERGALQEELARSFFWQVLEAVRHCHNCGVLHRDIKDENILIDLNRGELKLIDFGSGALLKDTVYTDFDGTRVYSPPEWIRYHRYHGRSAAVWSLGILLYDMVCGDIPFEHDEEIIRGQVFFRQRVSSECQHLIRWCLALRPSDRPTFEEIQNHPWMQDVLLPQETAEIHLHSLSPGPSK
Procedure: Inhibition of Enzymatic SYK, ZAP70, PYK2, FAK, PIM1, RET, FLT3, JAK2 and LRRK2 Kinase Activity
Compounds of the invention were initially diluted to 10 mM in 100% DMSO (CALBIOCHEM™) for storage and made into kinase buffer solution to create a compound concentration ranging from 1 uM and 10 uM. Serial dilutions of compounds of the invention were dispensed into a 96-well plate (GREINER BIOSCIENCES™) at 6 μL each. Purified full-length human SYK, ZAP70, PIM1, PYK2 and truncated human FAK, RET, FLT3, JAK2, and LRRK2 (CARNA BIOSCIENCES™) were diluted in kinase buffer and added to the compound solutions and pre-incubated for 30 minutes at room temperature (1 hour for PYK2). […] The reaction mixture was incubated for 1 hour (2 hours for PYK2). Following the incubation, the stop solution made with EDTA, water, and Lance detection buffer ([…]™) was added (12 μL each) to stop phosphorylation. […] Substrate phosphorylation was a function of the 665 nm emission measured following the addition of the detection solution and 50 minutes of incubation.

HT29 = test: cells; type: cell-based; conditions: HT29 (Colon Cancer)
HCT-15 = test: cells; type: cell-based; conditions: HCT-15 (Colon Cancer)
MOLT-4 = test: cells; type: cell-based; conditions: MOLT-4 (Leukemia)
DU-145 = test: cells; type: cell-based; conditions: DU-145 (Prostate Cancer)
T-47D = test: cells; type: cell-based; conditions: T-47D (Breast Cancer)
SK-MEL-5 = test: cells; type: cell-based; conditions: SK-MEL-5 (Melanoma)
MDA-MB-435 = test: cells; type: cell-based; conditions: MDA-MB-435 (Melanoma)
EKVX = test: cells; type: cell-based; conditions: EKVX (NSCLC)
K-562 = test: cells; type: cell-based; conditions: K-562 (Leukemia)
KM12 = test: cells; type: cell-based; conditions: KM12 (Colon Cancer)
SN12C = test: cells; type: cell-based; conditions: SN12C (Renal Cancer)
SNB-75 = test: cells; type: cell-based; conditions: SNB-75 (CNS Cancer)
UACC-62 = test: cells; type: cell-based; conditions: UACC-62 (Melanoma)
786-0 = test: cells; type: cell-based; conditions: 786-0 (Renal Cancer)
[1] = Homo sapiens, read-out: LC50 (the source's name)

O=c1[nH]ccc2nc(N3CCC(O)CC3)nc(Nc3cccc(C(F)(F)F)c3)c12 [Compound 6, 2-(4-hydroxypiperidin-1-yl)-4-(3-(trifluoromethyl)phenylamino)pyrido[4,3-d]pyrimidine-5(6H)-one]
GI50 (NCI/ADR-RES; Homo sapiens): 2.34 µM | IC50 (NCI/ADR-RES; Homo sapiens): 4.37 µM | CC50 (NCI/ADR-RES; [1]): 100 µM | TGI (NCI/ADR-RES): 7.41 µM | GI50 (OVCAR-3; Homo sapiens): 1.35 µM | IC50 (OVCAR-3; Homo sapiens): 3.63 µM | CC50 (OVCAR-3; [1]): 46.8 µM | TGI (OVCAR-3): 3.98 µM | GI50 (MDA-MB-231/ATCC; Homo sapiens): 12.3 µM | IC50 (MDA-MB-231/ATCC; Homo sapiens): ≥ 100 µM | CC50 (MDA-MB-231/ATCC; [1]): 100 µM | TGI (MDA-MB-231/ATCC): 100 µM | GI50 (SR; Homo sapiens): 0.708 µM | IC50 (SR; Homo sapiens): 2.51 µM | CC50 (SR; [1]): 100 µM | TGI (SR): 26.9 µM | TGI (BT-549): 4.37 µM | GI50 (BT-549; Homo sapiens): 1.58 µM | IC50 (BT-549; Homo sapiens): 4.57 µM | CC50 (BT-549; [1]): 14.1 µM | TGI (HCT-116): 12.3 µM | GI50 (HCT-116; Homo sapiens): 0.871 µM | IC50 (HCT-116; Homo sapiens): 1.32 µM | CC50 (HCT-116; [1]): 75.9 µM | GI50 (MCF7; Homo sapiens): 2.82 µM | IC50 (MCF7; Homo sapiens): 4.07 µM | CC50 (MCF7; [1]): 100 µM | TGI (MCF7): 12.6 µM | inhibition at 1 µM (human PIM1): 32% | TGI (HT29): 95.5 µM | GI50 (HT29; Homo sapiens, HT-29): 3.89 µM | IC50 (HT29; Homo sapiens, HT-29): 7.08 µM | CC50 (HT29; Homo sapiens, HT-29, read-out: LC50 (the source's name)): 100 µM | TGI (HCT-15): 31.6 µM | GI50 (HCT-15; Homo sapiens): 0.537 µM | IC50 (HCT-15; Homo sapiens): 0.759 µM | CC50 (HCT-15; [1]): 100 µM | GI50 (MOLT-4; Homo sapiens): 2.24 µM | IC50 (MOLT-4; Homo sapiens): 3.63 µM | LC50 (MOLT-4; Homo sapiens): 100 µM | TGI (MOLT-4): 7.76 µM | TGI (DU-145): 19.5 µM | GI50 (DU-145; Homo sapiens): 1.55 µM | IC50 (DU-145; Homo sapiens): 6.03 µM | CC50 (DU-145; [1]): 100 µM | GI50 (T-47D; Homo sapiens, T47D): 3.09 µM | IC50 (T-47D; Homo sapiens, T47D): 8.51 µM | CC50 (T-47D; Homo sapiens, T47D, read-out: LC50 (the source's name)): 100 µM | TGI (T-47D): 26.3 µM | GI50 (SK-MEL-5; Homo sapiens): 1.23 µM | IC50 (SK-MEL-5; Homo sapiens): 2.14 µM | CC50 (SK-MEL-5; [1]): 5.13 µM | TGI (SK-MEL-5): 2.51 µM | GI50 (MDA-MB-435; Homo sapiens): 1.29 µM | IC50 (MDA-MB-435; Homo sapiens): 2.57 µM | CC50 (MDA-MB-435; [1]): 9.77 µM | TGI (MDA-MB-435): 3.55 µM | TGI (EKVX): 12 µM | GI50 (EKVX; Homo sapiens): 2.88 µM | IC50 (EKVX; Homo sapiens): 7.59 µM | CC50 (EKVX; [1]): 100 µM | GI50 (K-562; Homo sapiens, K562): 3.16 µM | IC50 (K-562; Homo sapiens, K562): 3.98 µM | CC50 (K-562; Homo sapiens, K562, read-out: LC50 (the source's name)): 100 µM | TGI (K-562): 100 µM | GI50 (KM12; Homo sapiens): 1.45 µM | IC50 (KM12; Homo sapiens): 2.69 µM | CC50 (KM12; [1]): 24 µM | TGI (KM12): 5.37 µM | GI50 (SN12C; Homo sapiens): 4.07 µM | IC50 (SN12C; Homo sapiens): 12.9 µM | CC50 (SN12C; [1]): 100 µM | TGI (SN12C): 100 µM | GI50 (SNB-75; Homo sapiens): 5.75 µM | IC50 (SNB-75; Homo sapiens): 77.6 µM | CC50 (SNB-75; [1]): 100 µM | TGI (SNB-75): 81.3 µM | GI50 (UACC-62; Homo sapiens): 1.82 µM | IC50 (UACC-62; Homo sapiens): 3.98 µM | CC50 (UACC-62; [1]): 27.5 µM | TGI (UACC-62): 6.92 µM | TGI (786-0): 100 µM | GI50 (786-0; Homo sapiens): 2.04 µM | IC50 (786-0; Homo sapiens): 8.13 µM | CC50 (786-0; [1]): 100 µM

— patent US8404677B2, “Kinase inhibitors” (Genosco, priority 2009, dated 2013)
